# Results: US20240132887A1, “PROTEIN ARGININE METHYLTRANSFERASE 9 INHIBITORS AND METHODS OF USE” (City of Hope, priority 2022, published 2024)
# Experiments:
# PRMT9 = target: T1, PRMT9 (Homo sapiens, UniProt Q6P2P2); assay: In-house R493 methylation assay (PABPC1 peptide, SAM, dot blot with anti-R493me antibody); format: biochemical; conditions: for PRMT9 inhibition (catalytic activity screen of top 20 compounds): compounds 10 μM, PRMT9 pretreated 1 h
# T1 construct: Myc; made in house
# T1 sequence (Q6P2P2 1-845): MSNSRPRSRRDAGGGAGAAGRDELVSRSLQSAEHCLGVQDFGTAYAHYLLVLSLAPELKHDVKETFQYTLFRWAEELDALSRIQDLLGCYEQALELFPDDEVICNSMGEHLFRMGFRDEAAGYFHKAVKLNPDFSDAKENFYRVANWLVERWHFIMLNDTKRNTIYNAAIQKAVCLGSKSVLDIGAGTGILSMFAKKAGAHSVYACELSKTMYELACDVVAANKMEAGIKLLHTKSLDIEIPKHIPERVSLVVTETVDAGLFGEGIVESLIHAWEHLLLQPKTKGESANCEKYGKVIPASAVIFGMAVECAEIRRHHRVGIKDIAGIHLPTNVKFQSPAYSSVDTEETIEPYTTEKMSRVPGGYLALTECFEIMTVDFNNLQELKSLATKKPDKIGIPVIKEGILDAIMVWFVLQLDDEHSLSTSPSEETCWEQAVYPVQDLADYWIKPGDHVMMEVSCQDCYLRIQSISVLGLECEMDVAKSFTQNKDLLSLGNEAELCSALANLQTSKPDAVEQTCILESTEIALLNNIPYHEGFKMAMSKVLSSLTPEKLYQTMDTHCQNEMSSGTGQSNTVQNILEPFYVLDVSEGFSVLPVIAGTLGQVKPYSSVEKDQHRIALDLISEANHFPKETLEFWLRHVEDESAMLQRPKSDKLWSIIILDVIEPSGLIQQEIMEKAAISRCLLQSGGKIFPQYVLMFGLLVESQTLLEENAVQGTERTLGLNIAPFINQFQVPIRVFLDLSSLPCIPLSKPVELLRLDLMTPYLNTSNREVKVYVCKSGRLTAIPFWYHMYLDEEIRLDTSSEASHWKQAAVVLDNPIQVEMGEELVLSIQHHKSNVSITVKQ
# Method: FIG. 10D: Catalytic activity screen of 9 selected compounds using an in-house R493 methylation assay. PRMT9 protein was pretreated 1 h with indicated compounds using in vitro methylation buffer and then incubated with synthesized unmodified PABPC1 peptides and SAM. […] Catalytic activity inhibition curves are calculated based on intensity of blots normalized to intensity at 37° C. (n=2). […] Data (FIG. 10I) are represented as mean±SD; P values (FIG. 10I) were determined by two-way ANOVA.
# FIG. 11B: In-house R493 methylation assay. Synthesized unmodified PABPC1 peptides (aaG491-T507) were incubated 4 h with PRMT9 and SAM at 30° C. Catalytic activity was assessed by dot blot with anti-R493 specific antibody. PRMT9 or unmodified PABPC1 peptide alone served as negative controls, and synthesized R493me PABPC1 peptide as positive. FIG. 11C: Catalytic activity screen of top 20 compounds based on Molm13 viability assay with an in-house R493 methylation assay. PRMT9 protein was pretreated 1 h with indicated compounds (10 μM) and then incubated with synthesized unmodified PABPC1 peptides and SAM. Catalytic activity was assessed by dot blot with an anti-R493me specific antibody.
# [1] = test system: MNCs from AML BM specimens; assay: Primary AML MNC ex-vivo culture (CyTOF, flow cytometry); format: cell-based, human; conditions: αPD-1 alone or combined with LD2, 4 days ex-vivo
# Method: Spanning-tree Progression Analysis of Density-normalized Events (SPADE) clustering was performed to identify cell groups corresponding to immunophenotypic subsets across normal hematopoiesis lineages. The frequency of CD3^+ T cells and CD34^+CD45^dim AML blast cells were noted. […] The relative number of alive CD34^+CD45^dim AML blast cells was assessed by flow cytometry. Data are presented as mean±SD from 3 independent experiments.
# After 4 days treatment of vehicle (VEH) or LD2, survival of leukemic (CD34+CD33+) and immune subsets, including T cells (CD3+), B cells (CD19+/CD20+), and DCs (HLA-DR+CD34−CD33−CD3−CD19−CD20−CD14−CD56−), were accessed using Annexin-V staining.
# LD2 treatment in total of 4 days ex-vivo culture (under the BM stroma cytokine condition).
Molecule,PRMT9 inhibition (catalytic activity screen of top 20 compounds) (PRMT9),"PRMT9 inhibitory effects (PABP1 R493me levels) (PRMT9; different concentrations of each compound, comparison among the three NSC compounds)",proportion / frequency of tumor cells [1]
COc1ccc2c(c1)c1ccc3c(c1n2C)C(=O)C=CC3=O [NSC641396],most potent PRMT9 inhibition,most potent PRMT9 inhibitory effects,
Cc1cccc2c1c1ccc3c(c1n2C)C(=O)C=CC3=O [NSC645330],most potent PRMT9 inhibition,,
Cc1ccc2c(c1)c1ccc3c(c1n2C)C(=O)C=CC3=O [NSC661221],most potent PRMT9 inhibition,,
"αPD-1: anti-PD-1 (pembrolizumab, SIM0010, BioXCell) used in ex-vivo AML cultures",,,marginally decreased the proportion of tumor cells
